Source: patent publication US20160176867A1, “MODIFIED BET-PROTEIN-INHIBITING DIHYDROQUINOXALINONES AND DIHYDROPYRIDOPYRAZINONES” (BAYER PHARMA AKTIENGESELLSCHAFT, priority 2013, published 2016)

Columns and labels:
CHL-1 cells = assay: Cell proliferation assay (alamarBlue), CHL-1; format: cell-based; settings: Homo sapiens; CHL-1 (melanoma, BRAF wild-type), 96 hours
Method: In accordance with the invention, the ability of the substances to inhibit cell proliferation was determined. Cell viability was determined by means of the alamarBlue® reagent (Invitrogen) in a Victor X3 Multilabel Reader (Perkin Elmer). The excitation wavelength was 530 nm and the emission wavelength […].
The CHL-1 cells (ATCC, CRL-9446) were sown at a concentration of 1000 cells/well in 100 μl of growth medium (DMEM with glutamine, 10% FCS) on 96-well microtitre plates.
After overnight incubation at 37° C., the fluorescence values were determined (CI values). Then the plates were treated with various substance dilutions (1E-5 M, 3E-6 M, 1E-6 M, 3E-7 M, 1E-7 M, 3E-8 M, 1E-8 M) and incubated at 37° C. over 96 hours (MOLM-13, B16F10, CHL-1 cells) or 120 hours (MOLP-8 cells). Subsequently, the fluorescence values were determined (CO values). For the data analysis, the CI values were subtracted from the CO values and the results were compared between cells which had been treated with various dilutions of the substance or only with buffer solution. The IC50 values (substance concentration needed for 50% inhibition of cell proliferation) were calculated therefrom.

B16F10 cells = assay: Cell proliferation assay (alamarBlue), B16F10; format: cell-based; settings: Mus musculus, B16-F10; B16F10 (melanoma, BRAF wild-type), 96 hours
How it was run: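 B16F10 cells in DMEM with 10% FCS were exposed to seven concentrations from 1E-5 to 1E-8 M for 96 hours at 37 °C. Viability was read with alamarBlue (ex 530/em 590 nm), and day-0 signal was subtracted. IC50 was derived relative to buffer-treated cells.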

MOLP-8 cells = assay: Cell proliferation assay (alamarBlue), MOLP-8; format: cell-based; settings: Homo sapiens; MOLP-8 (multiple myeloma), 120 hours
How it was run: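 MOLP-8 cells plated at 4000 cells/well in RPMI1640 with 20% FCS, read after overnight culture, then treated with dilutions from 1E-5 to 1E-8 M for 120 hours at 37° C. Viability by alamarBlue fluorescence (ex 530/em 590 nm); initial reads subtracted, compared with buffer-treated cells, and IC50 calculated for 50% proliferation inhibition.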

[1] = molecular target: T1, BRD4 bromo domain 2 [BRD4(2)] (Homo sapiens, UniProt O60885); assay: BRD4/acetylated peptide H4 binding assay (TR-FRET), BRD4 bromo domain 2; settings: inhibition of BRD4(2)/Ac-H4 peptide interaction
T1 construct: N-terminally His6-tagged BRD4(2) (amino acids 357-445); made in house; host or cells: E. coli
How it was run: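 IC50 comes from a 4-parameter fit over 0.1 nM–20 μM in duplicate, normalised to DMSO and no-protein controls. TR-FRET (Eu-streptavidin/anti-His-XL665) tracks His-tagged BRD4(2) 357-445 at 100 nM binding Ac-H4 peptide in HEPES pH 7.5 buffer. Incubation was 1 h at 22 °C, then at 4 °C ≥3 h up to overnight.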

SMILES | IC50 (CHL-1 cells) [nM] | IC50 (B16F10 cells) [nM] | IC50 (MOLP-8 cells) [nM] | IC50 [1] [nM]
C[C@@H]1C(=O)N(C)c2ccc(Nc3cccc(S(=O)(=O)N4CCN(CC(F)(F)F)CC4)c3)nc2N1C1CCOCC1 [Example 37, (3R)-1,3-dimethyl-4-(tetrahydro-2H-pyran-4-yl)-6-[(3-{[4-(2,2,2-trifluoroethyl)piperazin-1-yl]sulphonyl}phenyl)-amino]-3,4-dihydropyrido-[2,3-b]pyrazin-2(1H)-one] | 53 | 93 | 65 | 16
CNS(=O)(=O)c1cccc(Nc2ccc3c(n2)N(C2CCOCC2)[C@H](C)C(=O)N3C)c1 [Example 39, 3-{[(3R)-1,3-dimethyl-2-oxo-4-(tetrahydro-2H-pyran-4-yl)-1,2,3,4-tetrahydropyrido[2,3-b]pyrazin-6-yl]amino}-N-methylbenzenesulphon-amide] | 63 | 149 | 91 | 135
C[C@@H]1C(=O)N(C)c2ccc(Nc3cccc(S(=O)(=O)N4CCCC4)c3)nc2N1C1CCOCC1 [Example 27, (3R)-1,3-Dimethyl-6-{[3-(pyrrolidin-1-ylsulphonyl)phenyl]amino}-4-(tetrahydro-2H-pyran-4-yl)-3,4-dihydropyrido[2,3-b]pyrazin-2(1H)-one] | 23 | 60 | 30 | 40
C[C@@H]1C(=O)N(C)c2ccc(Nc3cccc(S(=O)(=O)NC4CCN(C)CC4)c3)nc2N1C1CCN(C(=O)OC(C)(C)C)CC1 [Example 57, tert-butyl 4-[(3R)-1,3-dimethyl-6-({3-[(1-methylpiperidin-4-yl)sulphamoyl]phenyl}-amino)-2-oxo-2,3-dihydro-pyrido[2,3-b]pyrazin-4(1H)-yl]piperidine-1-carboxylate] | 175 | 531 | 151 | 177
C[C@@H]1C(=O)N(C)c2ccc(Nc3cccc(C(=O)N[C@H]4CC[C@H](N5CCN(CC6CC6)CC5)CC4)c3)nc2N1Cc1ccccc1 [Example 72, 3-{[(3R)-4-benzyl-1,3-dimethyl-2-oxo-1,2,3,4-tetrahydropyrido[2,3-b]pyrazin-6-yl]amino}-N-{trans-4-[4-(cyclo-propylmethyl)piperazin-1-yl]cyclohexyl}benzamide] | 106 | 396 | 122 | 256
C[C@@H]1C(=O)N(C)c2ccc(Nc3cccc(C(=O)N4CCN(C)CC4)c3)nc2N1Cc1ccccc1 [Example 75] | 125 | 381 | 133 | 79
C[C@@H]1C(=O)N(C)c2ccc(Nc3cccc(C(=O)N(C)C)c3)cc2N1C1CCNCC1 [Example 133, 3-{[(3R)-1,3-dimethyl-2-oxo-4-(piperidin-4-yl)-1,2,3,4-tetrahydroquinoxalin-6-yl]amino}-N,N-dimethylbenzamide] | > 10000 | > 20000 | 2010 | 990
C[C@@H]1C(=O)N(C)c2ccc(Nc3cccc(S(=O)(=O)N4CCCC4)c3)nc2N1C1CCN(C)CC1 [Example 24, (3R)-1,3-Dimethyl-4-(1-methylpiperidin-4-yl)-6-{[3-(pyrrolidin-1-ylsulphonyl)phenyl]amino}-3,4-dihydropyrido[2,3-b]pyrazin-2(1H)-one] | 13 | 112 | 11 | 55
C[C@@H]1C(=O)N(C)c2ccc(Nc3cccc(S(=O)(=O)NC4CCN(C)CC4)c3)nc2N1Cc1ccccc1 [Example 33, 3-{[(3R)-4-benzyl-1,3-dimethyl-2-oxo-1,2,3,4-tetrahydropyrido[2,3-b]pyrazin-6-yl]amino}-N-(1-methylpiperidin-4-yl)benzenesulphonamide] | 13 | 157 | 12 | 76
C[C@@H]1C(=O)N(C)c2ccc(Nc3cccc(S(=O)(=O)N(C)C)c3)cc2N1C1CCNCC1 [Example 129, 3-{[(3R)-1,3-dimethyl-2-oxo-4-(piperidin-4-yl)-1,2,3,4-tetrahydroquinoxalin-6-yl]amino}-N,N-dimethylbenzenesulphon-amide] | 945 | 2160 | 567 | 97
CCNS(=O)(=O)c1cccc(Nc2ccc3c(n2)N(C2CCOCC2)[C@H](C)C(=O)N3C)c1 [Example 23, 3-{[(3R)-1,3-dimethyl-2-oxo-4-(tetrahydro-2H-pyran-4-yl)-1,2,3,4-tetrahydropyrido[2,3-b]pyrazin-6-yl]amino}-N-ethylbenzenesulphonamide] | 50 | 44 | 37 | 39
C[C@@H]1C(=O)N(C)c2ccc(Nc3cccc(S(=O)(=O)N4CC(F)(F)C4)c3)nc2N1C1CCN(C)CC1 [Example 29, (3R)-6-({3-[(3,3-Difluoroazetidin-1-yl)sulphonyl]phenyl}amino)-1,3-dimethyl-4-(1-methylpiperidin-4-yl)-3,4-dihydropyrido[2,3-b]pyrazin-2(1H)-one] | 36 | 230 | 41 | 64
C[C@@H]1C(=O)N(C)c2ccc(Nc3cccc(C(=O)N[C@H]4CC[C@H](N5CCN(CC6CC6)CC5)CC4)c3)nc2N1c1ccc(F)cc1 [Example 93] | 539 | 1180 | 800 | 2450
C[C@@H]1C(=O)N(C)c2ccc(Nc3cccc(S(=O)(=O)NCCN(C)C)c3)nc2N1C1CCN(C(=O)OC(C)(C)C)CC1 [Example 59, tert-butyl 4-[(3R)-6-[(3-{[2-(dimethylamino)ethyl]-sulphamoyl}phenyl)amino]-1,3-dimethyl-2-oxo-2,3-dihydropyrido[2,3-b]pyrazin-4(1H)-yl]piperidine-1-carboxylate] | 204 | 1140 | 297 | 77
COCCN1c2nc(Nc3cccc(S(=O)(=O)N4CCOCC4)c3)ccc2N(C)C(=O)[C@H]1C (stereo in doubt) [Example 111, (3R)-4-(2-methoxyethyl)-1,3-dimethyl-6-{[3-(morpholin-4-ylsulphonyl)phenyl]amino}-3,4-dihydropyrido[2,3-b]pyrazin-2(1H)-one] | 85 | 316 | 106 | 115
C[C@@H]1C(=O)N(C)c2ccc(Nc3cccc(S(=O)(=O)N4CCOCC4)c3)nc2N1C1CCN(C)CC1 [Example 47, (3R)-1,3-dimethyl-4-(1-methylpiperidin-4-yl)-6-{[3-(morpholin-4-ylsulphonyl)phenyl]-amino}-3-4-dihydropyrido-[2,3-b]pyrazin-2(1H)-one] | 20 | 188 | 25 | 59
C[C@@H]1C(=O)N(C)c2ccc(Nc3cccc(C(=O)N[C@H]4CC[C@H](N5CCN(CC6CC6)CC5)CC4)c3)nc2N1C1CCNCC1 [Example 131, N-{trans-4-[4-(cyclo-propylmethyl)piperazin-1-yl]cyclohexyl}-3-{[(3R)-1,3-dimethyl-2-oxo-4-(piperidin-4-yl)-1,2,3,4-tetrahydropyrido[2,3-b]pyrazin-6-yl]amino}benzamide] | > 20000 | > 20000 | > 20000 | 188
C[C@@H]1C(=O)N(C)c2ccc(Nc3cccc(S(=O)(=O)NCC4CCN(C)CC4)c3)nc2N1C1CCOCC1 [Example 44, 3-{[(3R)-1,3-dimethyl-2-oxo-4-(tetrahydro-2H-pyran-4-yl)-1,2,3,4-tetrahydropyrido[2,3-b]pyrazin-6-yl]amino}-N-[(1-methylpiperidin-4-yl)methyl]benzene-sulphonamide] | 362 | 944 | 335 | 88
C[C@@H]1C(=O)N(C)c2ccc(Nc3cccc(S(N)(=O)=O)c3)nc2N1C1CCOCC1 [Example 58, 3-{[(3R)-1,3-dimethyl-2-oxo-4-(tetrahydro-2H-pyran-4-yl)-1,2,3,4-tetrahydropyrido[2,3-b]pyrazin-6-yl]amino}-benzenesulphonamide] | 299 | 613 | 268 | 103
